What all share (type): functional
The subject of assay [1] is Escherichia coli. Nature of the assay: Antibacterial activity against Escherichia coli ATCC 25922 at 50 ug/ml by cup-plate method. To be noted: read-out: IZ.
The subject of assay [2] is Staphylococcus aureus. Nature of the assay: Antibacterial activity against Staphylococcus aureus ATCC 9144 at 100 ug/ml by cup-plate method. The note with it: read-out: IZ.
In assay [3] the test system is Bacillus subtilis. The experiment in a line: Antibacterial activity against Bacillus subtilis ATCC 6633 at 50 to 100 ug/ml by cup-plate method.
The subject of assay [4] is Staphylococcus aureus. The experiment in a line: Antibacterial activity against Staphylococcus aureus ATCC 9144 at 50 to 100 ug/ml by cup-plate method.
The test system of assay [5] is Staphylococcus aureus. Nature of the assay: Antibacterial activity against Staphylococcus aureus ATCC 9144 at 50 ug/ml by cup-plate method. To be noted: read-out: IZ.
Assay [6] deals with Candida albicans. Nature of the assay: Antifungal activity against Candida albicans ATCC 10231 at 100 ug/ml by cup-plate method. To be noted: read-out: IZ.
The test system of assay [7] is Pseudomonas aeruginosa. Nature of the assay: Antibacterial activity against Pseudomonas aeruginosa ATCC 9027 at 50 to 100 ug/ml by cup-plate method.
Assay [8] has as its system Escherichia coli. The experiment in a line: Antibacterial activity against Escherichia coli ATCC 25922 at 50 to 100 ug/ml by cup-plate method.
For assay [9], the system named is Candida albicans. Nature of the assay: Antifungal activity against Candida albicans ATCC 10231 at 50 ug/ml by cup-plate method. The note with it: read-out: IZ.
Assay [10] deals with Pseudomonas aeruginosa. The experiment in a line: Antibacterial activity against Pseudomonas aeruginosa ATCC 9027 at 50 ug/ml by cup-plate method. The note with it: read-out: IZ.
In assay [11] the test system is Pseudomonas aeruginosa. Nature of the assay: Antibacterial activity against Pseudomonas aeruginosa ATCC 9027 at 100 ug/ml by cup-plate method. The note with it: read-out: IZ.
The subject of assay [12] is Bacillus subtilis. The experiment in a line: Antibacterial activity against Bacillus subtilis ATCC 6633 at 100 ug/ml by cup-plate method. To be noted: read-out: IZ.
The subject of assay [13] is Bacillus subtilis. The experiment in a line: Antibacterial activity against Bacillus subtilis ATCC 6633 at 50 ug/ml by cup-plate method. To be noted: read-out: IZ.
Assay [14] has as its system Escherichia coli. The experiment in a line: Antibacterial activity against Escherichia coli ATCC 25922 at 100 ug/ml by cup-plate method. To be noted: read-out: IZ.

For the molecule `O=c1c2cc(Br)ccc2nc(Cc2ccccc2Nc2c(Cl)cccc2Cl)n1-c1ccc(/N=C/c2ccc(Cl)cc2)cc1`, the zone of inhibition at 50 µg/mL in the assay with Escherichia coli [1] turned out to be 5 mm; in the assay on Staphylococcus aureus [5], 4 mm; in the assay with Candida albicans [9] it was 2 mm; in the assay with Pseudomonas aeruginosa [10], 3 mm; with Bacillus subtilis [13], 5 mm. Besides, the zone of inhibition at 100 µg/mL in the assay on Staphylococcus aureus [2] was determined as 6 mm; in the assay with Candida albicans [6] it was 4 mm; in the assay on Pseudomonas aeruginosa [11], 6 mm; in the assay with Bacillus subtilis [12], 9 mm; with Escherichia coli [14] it was 7 mm. Moreover, the Activity is 59.79% with Bacillus subtilis [3], 50.88% in the assay with Staphylococcus aureus [4], 46.93% with Pseudomonas aeruginosa [7] and 49.68% in the assay with Escherichia coli [8].
`COc1ccc(C2C(Cl)C(=O)N2c2ccc(-n3c(Cc4ccccc4Nc4c(Cl)cccc4Cl)nc4ccc(Br)cc4c3=O)cc2)cc1` (configuration not stated): the zone of inhibition at 50 µg/mL in the assay on Escherichia coli [1] came to 4 mm; with Staphylococcus aureus [5], 4 mm; in the assay with Candida albicans [9], 2 mm; with Pseudomonas aeruginosa [10] it was 4 mm; in the assay on Bacillus subtilis [13], 4 mm. The zone of inhibition at 100 µg/mL with Staphylococcus aureus [2] was determined as 8 mm; with Candida albicans [6], 4 mm; with Pseudomonas aeruginosa [11], 8 mm; with Bacillus subtilis [12], 8 mm; in the assay with Escherichia coli [14] it was 8 mm. The Activity in the assay on Bacillus subtilis [3] stood at 57.14%; with Staphylococcus aureus [4], 60.94%; in the assay with Pseudomonas aeruginosa [7], 65.76%; in the assay with Escherichia coli [8] it was 53.33%.
As for `O=c1c2cc(Br)ccc2nc(Cc2ccccc2Nc2c(Cl)cccc2Cl)n1-c1ccc(/N=C/c2cccc([N+](=O)[O-])c2)cc1`, the zone of inhibition at 50 µg/mL was 1 mm in the assay with Escherichia coli [1]; 1 mm in the assay with Staphylococcus aureus [5]; 1 mm in the assay with Candida albicans [9]; 1 mm in the assay with Pseudomonas aeruginosa [10]; 2 mm in the assay with Bacillus subtilis [13]. Further, the zone of inhibition at 100 µg/mL in the assay with Staphylococcus aureus [2] was 3 mm; with Candida albicans [6], 2 mm; in the assay on Pseudomonas aeruginosa [11], 3 mm; in the assay with Bacillus subtilis [12], 3 mm; with Escherichia coli [14], 3 mm. In addition, the Activity with Bacillus subtilis [3] came out at 24.99%; in the assay with Staphylococcus aureus [4], 29.73%; in the assay with Pseudomonas aeruginosa [7], 33.92%; in the assay with Escherichia coli [8], 28.39%.
For `C[C@@H]1[C@H](O)[C@@H](C)/C=C/C=C/C=C/C=C/C=C/C=C/C=C/[C@H](O[C@@H]2O[C@H](C)[C@@H](O)[C@H](N)[C@@H]2O)C[C@@H]2O[C@](O)(C[C@@H](O)C[C@@H](O)[C@H](O)CC[C@@H](O)C[C@@H](O)CC(=O)O[C@H]1C)C[C@H](O)[C@H]2C(=O)O` [AMPHOTERICIN B], the zone of inhibition at 100 µg/mL in the assay with Candida albicans [6] amounted to 9 mm. Further, the zone of inhibition at 50 µg/mL in the assay on Candida albicans [9] is 4 mm.
Consider `O=C1C(Cl)C(c2ccccc2O)N1c1ccc(-n2c(Cc3ccccc3Nc3c(Cl)cccc3Cl)nc3ccc(Br)cc3c2=O)cc1` (configuration not stated), for which the zone of inhibition at 50 µg/mL in the assay on Escherichia coli [1] was 3 mm; in the assay with Staphylococcus aureus [5], 3 mm; with Candida albicans [9], 0 mm; with Pseudomonas aeruginosa [10] it was 4 mm; in the assay on Bacillus subtilis [13], 3 mm. For the same molecule, the zone of inhibition at 100 µg/mL in the assay with Staphylococcus aureus [2] worked out at 6 mm; in the assay on Candida albicans [6] it was 0 mm; with Pseudomonas aeruginosa [11], 6 mm; in the assay on Bacillus subtilis [12], 6 mm; with Escherichia coli [14], 6 mm. For the same molecule, the Activity in the assay on Bacillus subtilis [3] is reported as 42.68%; in the assay with Staphylococcus aureus [4], 50.98%; in the assay on Pseudomonas aeruginosa [7], 50%; in the assay on Escherichia coli [8] it was 43.53%.
As for `O=C1C(Cl)C(c2ccc(O)cc2)N1c1ccc(-n2c(Cc3ccccc3Nc3c(Cl)cccc3Cl)nc3ccc(Br)cc3c2=O)cc1` (configuration not stated), the zone of inhibition at 50 µg/mL in the assay on Escherichia coli [1] was determined as 2 mm; in the assay with Staphylococcus aureus [5], 3 mm; in the assay on Candida albicans [9] it was 0 mm; in the assay with Pseudomonas aeruginosa [10], 4 mm; in the assay with Bacillus subtilis [13] it was 3 mm. Further, the zone of inhibition at 100 µg/mL in the assay with Staphylococcus aureus [2] came out at 5 mm; in the assay on Candida albicans [6], 0 mm; in the assay on Pseudomonas aeruginosa [11], 7 mm; in the assay with Bacillus subtilis [12] it was 5 mm; with Escherichia coli [14] it was 5 mm. The Activity with Bacillus subtilis [3] was 35.08%; with Staphylococcus aureus [4], 44.44%; with Pseudomonas aeruginosa [7], 58.33%; in the assay on Escherichia coli [8], 37.89%.
With `O=C1C(Cl)C(c2ccccc2[N+](=O)[O-])N1c1ccc(-n2c(Cc3ccccc3Nc3c(Cl)cccc3Cl)nc3ccc(Br)cc3c2=O)cc1` (configuration not stated), the zone of inhibition at 50 µg/mL came out at 3 mm in the assay on Escherichia coli [1]; 2 mm in the assay on Staphylococcus aureus [5]; 1 mm in the assay with Candida albicans [9]; 3 mm with Pseudomonas aeruginosa [10]; 3 mm with Bacillus subtilis [13]. For the same molecule, the zone of inhibition at 100 µg/mL stood at 4 mm with Staphylococcus aureus [2]; 2 mm with Candida albicans [6]; 6 mm in the assay on Pseudomonas aeruginosa [11]; 6 mm in the assay with Bacillus subtilis [12]; 5 mm in the assay on Escherichia coli [14]. Further, the Activity in the assay with Bacillus subtilis [3] is given as 42.68%; in the assay on Staphylococcus aureus [4], 36.75%; in the assay with Pseudomonas aeruginosa [7], 46.93%; with Escherichia coli [8], 37.56%.
Regarding `CC1(C)S[C@@H]2[C@H](NC(=O)Cc3ccccc3)C(=O)N2[C@H]1C(=O)O` [PENICILLIN G], the zone of inhibition at 50 µg/mL in the assay with Escherichia coli [1] is 7 mm; with Staphylococcus aureus [5] it was 6 mm; in the assay with Pseudomonas aeruginosa [10], 6 mm; in the assay on Bacillus subtilis [13] it was 7 mm. The zone of inhibition at 100 µg/mL with Staphylococcus aureus [2] was determined as 12 mm; in the assay with Pseudomonas aeruginosa [11], 12 mm; with Bacillus subtilis [12] it was 14 mm; in the assay on Escherichia coli [14], 14 mm.
Turning to `O=C1C(Cl)C(c2ccc(Cl)cc2)N1c1ccc(-n2c(Cc3ccccc3Nc3c(Cl)cccc3Cl)nc3ccc(Br)cc3c2=O)cc1` (configuration not stated), the zone of inhibition at 50 µg/mL came out at 3 mm in the assay on Escherichia coli [1]; 5 mm in the assay with Staphylococcus aureus [5]; 2 mm in the assay on Candida albicans [9]; 5 mm with Pseudomonas aeruginosa [10]; 5 mm in the assay with Bacillus subtilis [13]. Moreover, the zone of inhibition at 100 µg/mL is 8 mm in the assay on Staphylococcus aureus [2]; 5 mm with Candida albicans [6]; 8 mm in the assay on Pseudomonas aeruginosa [11]; 8 mm in the assay on Bacillus subtilis [12]; 7 mm in the assay with Escherichia coli [14]. Further, the Activity amounted to 57.44% in the assay with Bacillus subtilis [3], 66.67% with Staphylococcus aureus [4], 61.79% with Pseudomonas aeruginosa [7] and 51.09% in the assay on Escherichia coli [8].
Regarding `COc1cc(C2C(Cl)C(=O)N2c2ccc(-n3c(Cc4ccccc4Nc4c(Cl)cccc4Cl)nc4ccc(Br)cc4c3=O)cc2)cc(OC)c1OC` (configuration not stated), the zone of inhibition at 50 µg/mL in the assay on Escherichia coli [1] amounted to 3 mm; in the assay on Staphylococcus aureus [5] it was 4 mm; in the assay on Candida albicans [9], 1 mm; with Pseudomonas aeruginosa [10], 4 mm; in the assay on Bacillus subtilis [13] it was 5 mm. Besides, the zone of inhibition at 100 µg/mL in the assay on Staphylococcus aureus [2] stood at 7 mm; in the assay on Candida albicans [6], 2 mm; in the assay with Pseudomonas aeruginosa [11], 7 mm; in the assay with Bacillus subtilis [12] it was 7 mm; with Escherichia coli [14] it was 7 mm. The Activity in the assay with Bacillus subtilis [3] was found to be 46.48%; in the assay on Staphylococcus aureus [4] it was 58.33%; with Pseudomonas aeruginosa [7], 58.33%; with Escherichia coli [8], 50%.

(Values after ChEMBL document CHEMBL3046091, “Synthesis and antimicrobial activities of 2-azetidinyl-4-quinazolinone derivatives of diclofenac analogue” (2011).)
